# Results taken from publication PMC10350924, “Design, Synthesis, and Pharmacological Characterization of a Potent Soluble Epoxide Hydrolase Inhibitor for the Treatment of Acute Pancreatitis” (Journal of Medicinal Chemistry, 2023).
# What was measured:
# [1] = tested on: PGE2 production in LPS-stimulated J774 murine macrophages; test: PGE2 production in LPS-stimulated J774 macrophages; type: cell-based; details: Mus musculus; J774, 2 h pre-treatment 0.1–10 μM, LPS 10 μg/mL 24 h; read-out: IC50 for reduction of PGE2 levels
# Method: Murine monocyte/macrophage J774 cell line was obtained from the American Type Culture Collection (ATTC TIB 67). The cell line was grown in adhesion in Dulbecco’s modified Eagle’s medium (DMEM) supplemented with glutamine (2 mM, Aurogene Rome, Italy), Hepes (25 mM, Aurogene Rome, Italy), penicillin (100 U/mL, Aurogene Rome, Italy), streptomycin (100 μg/mL, Aurogene Rome, Italy), fetal bovine serum (FBS, 10%, Aurogene Rome, Italy), and sodium pyruvate (1.2%, Aurogene Rome, Italy) (DMEM completed). The cells were plated at a density of 1 × 10^6 cells in 75 cm^2 culture flasks and maintained at 37 °C under 5% CO2 in a humidified incubator until 90% confluence. The culture medium was changed every 2 days. Before a confluent monolayer appeared, subculturing cell process was carried out. Cells (0.5 × 10^6 cells/mL) were pretreated for 2 h in the absence or presence of 28 (0.1–10 μM) and then stimulated, for 24 h, with lipopolysaccharide (LPS) from E. coli, Serotype 0111:B4, (10 μg/mL; 100 μL in DMEM completed with FBS, Sigma-Aldrich, Milan, Italy).[42] The supernatants were collected for the measurement of PGE2 levels by ELISA assay (Cayman Chemical, Vinci-Biochem, Vinci, Italy).
# [2] = tested on: cerulein-induced acute pancreatitis; test: Cerulein-induced acute pancreatitis in mice; type: in vivo
# Method: Male CD-1 mice (33–39 g, 8 weeks, Charles River Laboratories; Calco, Italy) were fed with standard rodent chow and water and acclimated for 4 days at a 12 h light and 12 h dark schedule in a constant air-conditioned environment (21 ± 2 °C). The mice were randomly assigned to groups, and experiments were carried out during the light phase. Experimental procedures were conducted in conformity with Italian (D.L. 26/2014) and European (directive 2010/63/EU) regulations on the protection of animals used for scientific purposes and approved by the Italian Ministry. Acute pancreatitis (AP) was induced in mice by intraperitoneal (i.p.) injections of cerulein (50 μg/kg) hourly (5 times).[56] The groups were: (a) Sham group which received saline i.p. hourly (×5); […] The mice were killed 6 h after the first cerulein injection. Blood samples were obtained by direct intracardiac puncture. Pancreases and lungs were removed immediately, frozen, and stored at −80 °C until assayed. Portions of these organs were also fixed in formaldehyde for histological and immunohistochemical examination. Pancreas and lung sections (6 μm) were stained for hematoxylin & eosin (H&E). Evaluation of pancreas edema and inflammation signs were performed with a three-point scoring system. […] Analysis was performed in a blinded manner. Evaluation of lung edema and inflammatory infiltration was performed with three-point scoring system: 0, absent; 1, mild; 2, moderate; 3, severe. […] Tissue sections were then incubated with normal goat serum (Vector Laboratories, Newark, California) for 20 min to reduce nonspecific antibody interactions. Sections were incubated with primary antibody diluted in 0.01 M PBS, 2.5% normal serum (anti-Neutrophils rat monoclonal antibody, dilution 1:100, Abcam) for 30 min. After rinsing with PBS 0.01 M for 5 min, slides were incubated with biotinylated goat anti-rat IgG (Vector Laboratories, Newark, California), diluted 1:200, for 30 min. After rinsing with PBS 0.01 M for 5 min, slides were incubated with VECTASTAIN ABC Reagent (Vector Laboratories, Newark, California) for 30 min. Color development was performed using […] 3,3′-diaminobenzidine solution (Sigma-Aldrich, Milan, Italy), and sections were analyzed using Leica Microsystem with a magnification of 20x. Semiquantitative determination of protein expression was obtained with ImageJ/Fiji software. Liver injury was assessed by measuring the rise in plasma levels of alanine aminotransferase (ALT, a specific marker for hepatic parenchymal injury) and aspartate aminotransferase (AST, a nonspecific marker for hepatic injury) 6 h after cerulein injection by a clinical laboratory. Results are expressed in international units per milliliter.
# [3] = 10 mg/kg i.p. 0.5 and 2.5 h after first cerulein injection, 6 h
# [4] = 10 mg/kg i.p., 6 h after first cerulein injection
structure (smiles),measurement,setting,value
"CC(C)c1ccc(Cn2ccc3cc(NC(=O)NCC45C[C@H]6C[C@@H](C4)C[C@@H](C5)C6)ccc32)cc1 [Compound 28, 1-(((3R,5R,7R)-Adamantan-1-yl)methyl)-3-(1-(4-isopropylbenzyl)-1H-indol-5-yl)urea]",IC50,[1],> 10 µM
same,lung inflammation and neutrophilia,[2]; [3],reduced
same,"pancreatic injury (edema, cell infiltration, neutrophil numbers)",[2]; [3],protective effect
same,serum ALT levels,[2]; [4],decreased
same,serum AST levels,[2]; [4],decreased
